Test results: ChEMBL document CHEMBL1201862, “PubChem BioAssay data set” (2004)
Calls of active or inactive are those of the source.

Legend:
[1] = reduced cellular PGC1a acetyl-lysine signal – cell-based, cherry-picked samples, dose response (AID 720514); assay type: functional;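 note: potency may reflect raised or lowered acetylation signal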
[2] = OVCAR8 cell viability loss – plate reader, dry powder samples, PAX8 project, dose response (AID 743197); assay type: functional, cell-based; conditions: OVCAR-8
Paired box protein Pax-8 = Paired box protein Pax-8 (Homo sapiens, UniProt Q06710); test: PAX8 transcriptional activity inhibition in RMG-I – RMG-I cells, luciferase, cherry-pick, dose response (AID 687027); assay type: functional, cell-based;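 note: luciferase reporter driven by Pax8 target thyroperoxidase promoter measured by SteadyGlo luminescence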
[3] = target: Bifunctional protein GlmU (Mycobacterium tuberculosis, UniProt P9WMN3); test: Inhibitors of Mycobacterial Glucosamine-1-phosphate acetyl transferase (GlmU). Secondary screen.; parameters: species or system Mycobacterium tuberculosis H37Rv
[4] = P. falciparum Dd2 growth inhibitors, dose response, SYBR Green, cherry-picked samples (AID 1159567); assay type: functional, cell-based
[5] = growth inhibition of yeast DHODH-expressing 3D7 parasites – SYBR Green, dry powder samples, dose response (AID 1159570); assay type: functional, cell-based;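 note: parasite growth measured after 72 hours of compound exposure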
[6] = Dd2 malaria parasite growth inhibition potency – SYBR Green, dry powder samples, dose response (AID 1159566); assay type: functional, cell-based;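 note: potency for growth inhibition with lower SYBR green DNA signal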
[7] = growth inhibition of PfATP4-mutant resistant parasites – NITD609-resistant line, SYBR Green, dry powder, dose response (AID 1159571); assay type: functional, cell-based;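 note: parasites synchronized at ring stage by sorbitol before testing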
[8] = rise of 2N DNA cells, HeLa – IC50, dose response (AID 1117349); assay type: functional, cell-based
[9] = target: Photoreceptor-specific nuclear receptor (Homo sapiens, UniProt Q9Y5X4); assay type: functional, cell-based;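 note: CHO-S cells with Gal4-NCOR and VP16-NR2E3 two-hybrid luciferase reporter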
[10] = RKO cell viability reduction, dose response, CellTiter-Glo luminescence (AID 1117322); assay type: functional
[11] = Potency on glucagon-like peptide 1 release, dose-response in NCI-H716 cell line, half maximal inhibitory concentration (AID 1117344); assay type: functional, cell-based
[12] = SNU-C1 cell viability reduction, dose response, CellTiter-Glo luminescence (AID 1117323); assay type: functional, cell-based
[13] = HCT116 cell viability decrease, GSK3B pretreatment – CellTiter-Glo, IC50, dose response (AID 1117339); assay type: functional; conditions: HCT-116
[14] = cytotoxicity toward HT-29 cells – cell-based, CellTiter-Glo luminescence, IC50, dose response (AID 1117330); assay type: functional
[15] = glucagon-like peptide-1 release potency in STC-1, concentration-response, half-maximal inhibitory concentration in the STC-1 line (AID 1117345); assay type: functional, cell-based
[16] = cytotoxicity toward Colo320 cells – cell-based, CellTiter-Glo luminescence, IC50, dose response (AID 1117334); assay type: functional; conditions: COLO 320
[17] = Reduced DLD-1 viability, concentration-response, CellTiter-Glo luminescence (AID 1117352); assay type: functional
[18] = cytotoxicity toward HCT116 cells – cell-based, CellTiter-Glo luminescence, IC50, dose response (AID 1117332); assay type: functional; conditions: HCT-116
[19] = rise of 4N DNA cells, HeLa – IC50, dose response (AID 1117351); assay type: functional, cell-based
[20] = target: T1, Glutathione-S-transferase (Schistosoma japonicum, UniProt Q26513); test: GST-antibody interaction or FRET quenching – biochemical, TR-FRET, artefact control for Vif-APOBEC3G degradation inhibitor project, dose response (AID 1117362); assay type: functional
T1 sequence (Q26513 whole entry): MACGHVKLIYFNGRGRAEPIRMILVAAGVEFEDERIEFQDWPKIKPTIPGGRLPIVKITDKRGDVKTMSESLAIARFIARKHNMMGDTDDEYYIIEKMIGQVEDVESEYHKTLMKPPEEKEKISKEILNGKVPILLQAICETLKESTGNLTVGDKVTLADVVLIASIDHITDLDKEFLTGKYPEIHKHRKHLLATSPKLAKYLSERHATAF

[21] = target: T2, Replicative DNA helicase DnaB (Mycobacterium tuberculosis, UniProt P9WMR3); test: DnaB intein splicing inhibitors, dose response, biochemical, cell-free fluorescence (AID 449749); assay type: functional
T2 sequence (P9WMR3 whole entry): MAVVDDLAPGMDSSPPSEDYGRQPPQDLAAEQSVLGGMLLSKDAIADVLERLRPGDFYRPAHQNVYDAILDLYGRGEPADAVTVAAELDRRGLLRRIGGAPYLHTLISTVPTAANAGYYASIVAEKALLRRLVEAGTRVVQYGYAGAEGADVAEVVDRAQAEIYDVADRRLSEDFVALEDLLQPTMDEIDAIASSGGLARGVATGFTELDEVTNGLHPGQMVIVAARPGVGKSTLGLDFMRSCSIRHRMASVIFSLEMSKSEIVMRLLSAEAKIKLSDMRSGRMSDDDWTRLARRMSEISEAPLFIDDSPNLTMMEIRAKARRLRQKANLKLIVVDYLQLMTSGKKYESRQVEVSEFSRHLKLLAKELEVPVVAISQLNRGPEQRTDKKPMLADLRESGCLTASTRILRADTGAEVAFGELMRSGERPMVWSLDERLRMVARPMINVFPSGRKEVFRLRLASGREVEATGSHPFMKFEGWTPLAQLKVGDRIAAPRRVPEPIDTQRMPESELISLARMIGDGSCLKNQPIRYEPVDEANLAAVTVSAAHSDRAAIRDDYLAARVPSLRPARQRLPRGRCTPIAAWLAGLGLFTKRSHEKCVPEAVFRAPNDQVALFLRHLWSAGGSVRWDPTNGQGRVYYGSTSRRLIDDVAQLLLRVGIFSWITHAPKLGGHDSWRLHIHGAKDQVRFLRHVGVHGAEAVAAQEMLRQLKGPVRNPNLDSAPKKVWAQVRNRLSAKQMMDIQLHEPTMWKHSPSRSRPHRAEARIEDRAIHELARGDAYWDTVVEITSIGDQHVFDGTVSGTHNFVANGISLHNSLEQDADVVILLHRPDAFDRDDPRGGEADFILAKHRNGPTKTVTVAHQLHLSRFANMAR

[22] = viability loss in Vero cells – cytotoxicity control for Vif-APOBEC3G degradation inhibitor project, dose response (AID 1117358); assay type: functional; conditions: Vero
Protein RecA = target: T3, Protein RecA (Mycobacterium tuberculosis, UniProt P9WHJ3); test: Fluorescence Cell-Free Homogeneous Dose Retest to Identify Inhibitors of RecA-Intein Splicing Activity. [Related pubchem assays (depositor defined):AID2097, AID2223, AID489010, AID492950]; assay type: functional
T3 sequence (P9WHJ3 whole entry): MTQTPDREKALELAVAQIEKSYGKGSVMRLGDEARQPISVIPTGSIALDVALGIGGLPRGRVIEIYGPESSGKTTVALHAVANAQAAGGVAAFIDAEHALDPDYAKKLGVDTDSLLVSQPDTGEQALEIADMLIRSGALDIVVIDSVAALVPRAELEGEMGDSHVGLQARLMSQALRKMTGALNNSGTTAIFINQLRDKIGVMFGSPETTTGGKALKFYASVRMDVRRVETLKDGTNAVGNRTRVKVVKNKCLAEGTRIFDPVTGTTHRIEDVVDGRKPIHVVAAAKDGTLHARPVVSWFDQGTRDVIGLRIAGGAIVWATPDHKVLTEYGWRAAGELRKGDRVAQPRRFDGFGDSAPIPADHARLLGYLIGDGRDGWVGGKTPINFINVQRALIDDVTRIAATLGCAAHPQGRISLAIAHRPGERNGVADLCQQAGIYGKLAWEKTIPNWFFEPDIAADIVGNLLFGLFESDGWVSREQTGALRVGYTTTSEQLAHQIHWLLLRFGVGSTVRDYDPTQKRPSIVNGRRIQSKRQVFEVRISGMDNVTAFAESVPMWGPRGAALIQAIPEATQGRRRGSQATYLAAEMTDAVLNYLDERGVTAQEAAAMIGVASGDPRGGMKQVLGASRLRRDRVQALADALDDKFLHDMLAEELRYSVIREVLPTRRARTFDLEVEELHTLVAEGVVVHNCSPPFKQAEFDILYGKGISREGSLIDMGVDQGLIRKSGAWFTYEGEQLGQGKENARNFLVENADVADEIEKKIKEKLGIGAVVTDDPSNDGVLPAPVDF

[23] = viability loss in human Jurkat cells – cell-based, luminescence, cytotoxicity control for P. falciparum gametocyte viability project, dose response (AID 1117277); assay type: functional;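 note: potency reflects loss of cellular ATP meaning fewer viable cells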
[24] = viability inhibitors of stage V gametocytes – luminescence, dose response (AID 1117278); assay type: functional, cell-based;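 note: gametocytes exposed to compound for 24 hours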
[25] = general mammalian cell viability loss – inhibitor set, cherry-pick, set 2, cytotoxicity control for miR-122 modulator project, dose response (AID 720697); assay type: functional, cell-based
[26] = CellTiter-Glo luminescence survival assay, SW480 colon tumor line, concentration-response curve, half-maximal inhibitory concentration (AID 1117338); assay type: functional

Chain of Bifunctional protein GlmU (P9WMN3 whole entry): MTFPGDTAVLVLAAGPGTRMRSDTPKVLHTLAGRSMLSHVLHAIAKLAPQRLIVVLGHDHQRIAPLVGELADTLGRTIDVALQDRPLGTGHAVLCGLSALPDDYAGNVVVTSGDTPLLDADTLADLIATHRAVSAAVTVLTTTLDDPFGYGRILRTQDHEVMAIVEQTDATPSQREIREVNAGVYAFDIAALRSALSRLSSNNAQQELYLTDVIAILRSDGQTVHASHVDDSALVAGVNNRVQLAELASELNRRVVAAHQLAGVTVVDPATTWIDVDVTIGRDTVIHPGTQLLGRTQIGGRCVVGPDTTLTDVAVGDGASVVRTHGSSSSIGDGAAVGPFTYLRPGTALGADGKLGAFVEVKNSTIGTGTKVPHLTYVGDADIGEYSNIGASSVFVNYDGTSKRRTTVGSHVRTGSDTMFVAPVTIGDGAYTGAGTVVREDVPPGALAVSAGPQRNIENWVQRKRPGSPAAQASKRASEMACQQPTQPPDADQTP
Chain of Photoreceptor-specific nuclear receptor (Q9Y5X4 whole entry, the tested form may be a part): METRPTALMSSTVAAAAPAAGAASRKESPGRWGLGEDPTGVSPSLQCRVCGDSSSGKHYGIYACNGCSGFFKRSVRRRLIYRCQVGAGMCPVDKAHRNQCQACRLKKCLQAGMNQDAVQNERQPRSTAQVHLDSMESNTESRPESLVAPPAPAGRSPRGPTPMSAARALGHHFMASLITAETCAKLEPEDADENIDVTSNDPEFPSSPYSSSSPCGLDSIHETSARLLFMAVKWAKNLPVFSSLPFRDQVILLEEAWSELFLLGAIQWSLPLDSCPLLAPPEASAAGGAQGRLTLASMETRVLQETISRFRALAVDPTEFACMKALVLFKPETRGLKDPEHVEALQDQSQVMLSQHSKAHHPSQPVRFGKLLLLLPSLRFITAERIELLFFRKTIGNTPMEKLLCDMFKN
Chain of Paired box protein Pax-8 (Q06710 whole entry): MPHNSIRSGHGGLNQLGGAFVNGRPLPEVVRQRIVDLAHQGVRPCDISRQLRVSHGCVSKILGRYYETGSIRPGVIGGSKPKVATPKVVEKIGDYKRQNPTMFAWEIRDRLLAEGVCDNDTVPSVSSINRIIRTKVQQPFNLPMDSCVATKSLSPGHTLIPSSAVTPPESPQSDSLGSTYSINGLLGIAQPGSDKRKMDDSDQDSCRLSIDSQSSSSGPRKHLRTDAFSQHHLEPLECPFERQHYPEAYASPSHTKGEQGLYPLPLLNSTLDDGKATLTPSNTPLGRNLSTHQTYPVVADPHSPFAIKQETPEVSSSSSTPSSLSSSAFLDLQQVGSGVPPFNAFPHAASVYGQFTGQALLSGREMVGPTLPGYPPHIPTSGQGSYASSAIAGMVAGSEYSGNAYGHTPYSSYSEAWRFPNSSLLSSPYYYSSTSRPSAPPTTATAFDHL

In the case of `C[C@@H]1CCCCO[C@H](CN(C)Cc2ccc(Cl)c(Cl)c2)[C@H](C)CN([C@@H](C)CO)C(=O)c2cc(NC(=O)Nc3ccc(F)cc3)ccc2O1`, the AC50 [1] is reported as 14.3 µM (active), the AC50 [2] is reported as 65.1 µM (active) and the AC50 (Paired box protein Pax-8) is reported as 11.3 µM (active).
In the case of `O=C1CCCC(=O)C1=NNc1cccc(C(=O)O)c1`, the IC50 [3] is reported as 120 µM (active).
With `C[C@H](CO)N1C[C@H](C)[C@@H](CN(C)C(=O)Nc2ccc(-c3ccccc3)cc2)OCc2ccccc2-c2c(n(C)c3ccccc23)C1=O` the AC50 [4] was 1.41 µM (active), the AC50 [5] was 0.684 µM (active) and the AC50 [6] was 0.544 µM (active). The AC50 [7] was 0.577 µM (active).
With `CCC(C)(C)C(=O)O[C@H]1C[C@@H](C)C=C2C=C[C@H](C)[C@H](CC[C@@H]3C[C@@H](O)CC(=O)O3)[C@H]21` [SIMVASTATIN] the IC50 [8] was > 10 µM (inactive), the IC50 [9] was 1.16 µM (active) and the IC50 [10] was > 20 µM (inactive). For the same compound, the IC50 [11] was 21.5 µM (inactive), the IC50 [12] was > 20 µM (inactive) and the IC50 [13] was 4.73 µM (active). The IC50 [14] was > 20 µM (inactive), the IC50 [15] was 3.29 µM (active) and the IC50 [16] was 4.94 µM (active). For the same compound, the IC50 [17] was > 20 µM (inactive), the IC50 [18] was > 20 µM (inactive) and the IC50 [19] was > 10 µM (inactive).
In the case of `CCN(CC)c1ccc2c(c1)CCCN2`, the IC50 [20] is reported as 48.6 µM (active), the AC50 [21] is reported as > 120 µM (inactive) and the CC50 [22] is reported as > 40 µM (active). The EC50 (Protein RecA) was > 380 µM (inconclusive).
For `O=c1c2ccccc2ncn1CCCCOc1ccc(Br)cc1`, the IC50 [23] was > 83.3 µM (inactive) and the IC50 [24] was > 109 µM (inactive).
For `COCC(=O)Nc1ccc2c(c1)C(=O)N(C)[C@@H]1CC[C@@H](CC(=O)OC)O[C@@H]1CO2`, the AC50 [25] was < 0.195 µM (active).
In the case of `[H]/C=C\c1c(C)c2cc3nc(cc4[nH]c(cc5nc(cc1[nH]2)C(C)=C5CCC(=O)O)c(CCC(=O)OC)c4C)[C@@]1(C)C3=CC=C(C(=O)OC)[C@@H]1C(=O)OC`, the IC50 [26] is reported as > 6.67 µM (inactive), the IC50 [10] is reported as 3.53 µM (active) and the IC50 [12] is reported as 5.85 µM (inactive). The IC50 [13] was 4.26 µM (active), the IC50 [14] was 3.94 µM (active) and the IC50 [16] was 9.62 µM (inactive). For the same compound, the IC50 [18] was 5.65 µM (inactive).
